Data reported in ChEMBL document CHEMBL1909046, “DrugMatrix in vitro pharmacology data”.

Tests used:
D(1A) dopamine receptor = D(1A) dopamine receptor (Homo sapiens, UniProt P21728); experiment: DRUGMATRIX: Dopamine D1 radioligand binding (ligand: [3H] SCH-23390); type: cell membranes, CHO, Membrane; settings: cho; Not Active = under 50% inhibition at 10 µM
[1] = DRUGMATRIX: Sodium/nucleoside co-transporter radioligand binding (ligand: nitrobenzylthioinosine); type: cell membranes, Cavia porcellus, Dunkin-Hartley, Cerebral cortex, Membrane; settings: Not Active = under 50% inhibition at 10 µM
[2] = DRUGMATRIX: Glutamate, Kainate radioligand binding (ligand: [3H] Kainic acid); type: cell membranes, Rattus norvegicus, Wistar, Brain, Membrane; settings: Not Active = under 50% inhibition at 10 µM
[3] = biological target: Kappa-type opioid receptor (Homo sapiens, UniProt P41145); experiment: DRUGMATRIX: Opiate kappa (OP2, KOP) radioligand binding (ligand: [3H] Diprenorphine); type: cell membranes, HEK293, Membrane; settings: Not Active = under 50% inhibition at 10 µM
Kappa-type opioid receptor, sequence (P41145 whole entry): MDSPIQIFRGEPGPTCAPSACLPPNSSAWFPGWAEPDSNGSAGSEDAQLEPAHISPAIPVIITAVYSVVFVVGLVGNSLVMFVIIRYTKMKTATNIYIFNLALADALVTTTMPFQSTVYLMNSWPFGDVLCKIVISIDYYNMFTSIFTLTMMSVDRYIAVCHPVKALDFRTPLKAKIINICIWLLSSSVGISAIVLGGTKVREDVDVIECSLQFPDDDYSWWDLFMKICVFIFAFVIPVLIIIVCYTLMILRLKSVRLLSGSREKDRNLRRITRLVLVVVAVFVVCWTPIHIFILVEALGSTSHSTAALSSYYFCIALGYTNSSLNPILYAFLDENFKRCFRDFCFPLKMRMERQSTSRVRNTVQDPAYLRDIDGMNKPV

[4] = DRUGMATRIX: Tumor Necrosis Factor (TNF), Non-Selective radioligand binding (ligand: [125I] TNF-alpha); type: cell membranes, Membrane; settings: u-937; Not Active = under 50% inhibition at 10 µM
[5] = biological target: Sodium-dependent noradrenaline transporter (Homo sapiens, UniProt P23975); experiment: DRUGMATRIX: Norepinephrine Transporter radioligand binding (ligand: [125I] RTI-55); type: cell membranes, MDCK, Membrane; settings: mdck; Not Active = under 50% inhibition at 10 µM
Sodium-dependent noradrenaline transporter, sequence (P23975 whole entry): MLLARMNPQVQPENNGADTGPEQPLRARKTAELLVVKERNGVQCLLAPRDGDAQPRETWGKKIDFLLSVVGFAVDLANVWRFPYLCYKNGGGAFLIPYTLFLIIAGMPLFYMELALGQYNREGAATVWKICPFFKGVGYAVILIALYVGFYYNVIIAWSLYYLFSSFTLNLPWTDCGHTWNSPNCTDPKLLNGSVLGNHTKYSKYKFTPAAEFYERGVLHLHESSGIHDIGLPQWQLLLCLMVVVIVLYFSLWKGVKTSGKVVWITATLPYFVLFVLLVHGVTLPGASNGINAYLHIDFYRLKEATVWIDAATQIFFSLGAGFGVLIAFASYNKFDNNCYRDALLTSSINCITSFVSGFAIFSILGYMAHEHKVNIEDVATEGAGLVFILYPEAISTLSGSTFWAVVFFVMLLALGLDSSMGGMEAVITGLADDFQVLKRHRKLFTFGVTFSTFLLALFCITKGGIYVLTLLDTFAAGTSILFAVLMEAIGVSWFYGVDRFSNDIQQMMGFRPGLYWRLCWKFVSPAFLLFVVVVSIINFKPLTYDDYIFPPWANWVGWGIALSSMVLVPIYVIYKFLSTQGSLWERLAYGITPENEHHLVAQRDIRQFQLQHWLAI

[6] = DRUGMATRIX: Atrial Natriuretic Factor (ANF) radioligand binding (ligand: [125I] ANF (rat)); type: cell membranes, Cavia porcellus, Dunkin-Hartley, Adrenal gland, Membrane; settings: Not Active = under 50% inhibition at 10 µM
[7] = DRUGMATRIX: Phosphodiesterase PDE4 enzyme inhibition (substrate: [3H]cAMP + cAMP); settings: u-937; Not Active = under 50% inhibition at 10 µM

D(1A) dopamine receptor, sequence (P21728 whole entry): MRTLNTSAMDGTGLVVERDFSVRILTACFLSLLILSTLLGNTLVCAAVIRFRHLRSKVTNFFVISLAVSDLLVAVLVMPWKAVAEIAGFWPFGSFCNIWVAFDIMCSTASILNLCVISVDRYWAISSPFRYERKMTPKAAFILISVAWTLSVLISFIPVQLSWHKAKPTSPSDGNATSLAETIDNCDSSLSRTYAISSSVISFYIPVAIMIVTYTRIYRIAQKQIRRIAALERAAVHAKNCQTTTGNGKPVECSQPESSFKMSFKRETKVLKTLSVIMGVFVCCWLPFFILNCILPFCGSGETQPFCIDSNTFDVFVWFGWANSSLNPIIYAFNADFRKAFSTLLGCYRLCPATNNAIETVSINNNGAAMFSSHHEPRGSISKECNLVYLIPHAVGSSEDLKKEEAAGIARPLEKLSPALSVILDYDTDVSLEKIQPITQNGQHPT

CCCCC(=O)N(Cc1ccc(-c2ccccc2-c2nnn[nH]2)cc1)[C@H](C(=O)O)C(C)C
Not Active: IC50 (D(1A) dopamine receptor) | IC50 [1] | Ki [1] | IC50 [2] | Ki [2] | IC50 ([3]; hek293) | IC50 [4] | Ki [4] | IC50 [5] | IC50 [6] | Ki [6] | IC50 [7] | Ki [7]

O=C(O)COc1ccc(C(=O)c2cccs2)c(Cl)c1Cl
Not Active: IC50 (D(1A) dopamine receptor) | IC50 [1] | Ki [1] | IC50 [2] | Ki [2] | IC50 ([3]; hek293) | IC50 [4] | Ki [4] | IC50 [5] | IC50 [6] | Ki [6] | IC50 [7] | Ki [7]

CN1[C@@H]2CC[C@H]1C[C@@H](OC(c1ccccc1)c1ccccc1)C2 [BENZTROPINE]
Not Active: IC50 ([3]; hek293)

C[C@@](Cc1ccc(O)c(O)c1)(NN)C(=O)O.O [CARBIDOPA]
Not Active: IC50 (D(1A) dopamine receptor) | IC50 [1] | Ki [1] | IC50 [2] | Ki [2] | IC50 ([3]; hek293) | IC50 [4] | Ki [4] | IC50 [5] | IC50 [6] | Ki [6] | IC50 [7] | Ki [7]

CN1CCN(C2=Nc3cc(Cl)ccc3Nc3ccccc32)CC1 [CLOZAPINE]
Not Active: IC50 ([3]; hek293)

CC(C)NC[C@@H](O)COc1cccc2ccccc12 [DEXPROPRANOLOL]
Not Active: IC50 ([3]; hek293)

CC(C)NC[C@H](O)COc1cccc2ccccc12 [LEVOPROPRANOLOL]
Not Active: IC50 ([3]; hek293)

O=C(O)CCCCC1CCSS1 (stereo not drawn) [LIPOIC ACID, ALPHA]
Not Active: IC50 (D(1A) dopamine receptor) | IC50 [1] | Ki [1] | IC50 [2] | Ki [2] | IC50 ([3]; hek293) | IC50 [4] | Ki [4] | IC50 [5] | IC50 [6] | Ki [6] | IC50 [7] | Ki [7]

Clc1ccc(COC(Cn2ccnc2)c2ccc(Cl)cc2Cl)c(Cl)c1 (configuration not stated) [MICONAZOLE]
2.64 µM: Ki [3]
6.59 µM: IC50 ([3]; read-out: IC50)

Oc1ccc2c3c1O[C@H]1[C@@H](O)CC[C@@]4(O)[C@@H](C2)N(CC2CCC2)CC[C@]314 [NALBUPHINE]
Not Active: IC50 [5]

C[C@]12C=CC(=O)C=C1CC[C@@H]1[C@@H]2C(=O)C[C@@]2(C)[C@H]1CC[C@]2(O)C(=O)CO [PREDNISONE]
Not Active: IC50 (D(1A) dopamine receptor) | IC50 [2] | Ki [2] | IC50 ([3]; hek293) | IC50 [4] | Ki [4] | IC50 [5] | IC50 [6] | Ki [6] | IC50 [7] | Ki [7]
1.69 µM: Ki ([1]; read-out: Ki)
4.95 µM: IC50 ([1]; read-out: IC50)

OCCOCCN1CCN(C2=Nc3ccccc3Sc3ccccc32)CC1 [QUETIAPINE]
Not Active: IC50 ([3]; hek293) | IC50 [5]

COC(=O)[C@H]1[C@H]2C[C@@H]3c4[nH]c5cc(OC)ccc5c4CCN3C[C@H]2C[C@@H](OC(=O)c2cc(OC)c(OC)c(OC)c2)[C@@H]1OC [RESERPINE]
Not Active: IC50 (D(1A) dopamine receptor) | IC50 [1] | Ki [1] | IC50 [2] | Ki [2] | IC50 ([3]; hek293) | IC50 [4] | Ki [4] | IC50 [5] | IC50 [6] | Ki [6] | IC50 [7] | Ki [7]

O=C(O)c1ccccc1O [SALICYLIC ACID]
Not Active: IC50 (D(1A) dopamine receptor) | IC50 [1] | Ki [1] | IC50 [2] | Ki [2] | IC50 [4] | Ki [4] | IC50 [5] | IC50 [6] | Ki [6] | IC50 [7] | Ki [7]

C[S+]([O-])c1ccc(-c2nc(-c3ccncc3)c(-c3ccc(F)cc3)[nH]2)cc1 (configuration not stated) [SB-203580]
Not Active: IC50 ([3]; hek293) | IC50 [5]

CC1CCC(NC(=O)N(CCCl)N=O)CC1 (configuration not stated) [SEMUSTINE]
Not Active: IC50 (D(1A) dopamine receptor) | IC50 [1] | Ki [1] | IC50 [2] | Ki [2] | IC50 ([3]; hek293) | IC50 [4] | Ki [4] | IC50 [5] | IC50 [6] | Ki [6] | IC50 [7] | Ki [7]

O=C1C[C@@H]2OCC=C3CN4CC[C@]56c7ccccc7N1[C@H]5[C@H]2[C@H]3C[C@H]46 [STRYCHNINE]
Not Active: IC50 (D(1A) dopamine receptor) | IC50 [1] | Ki [1] | IC50 [2] | Ki [2] | IC50 [4] | Ki [4] | IC50 [5] | IC50 [6] | Ki [6] | IC50 [7] | Ki [7]

C[N+](C)(C)CCOC(=O)CCC(=O)OCC[N+](C)(C)C.[Cl-].[Cl-] [SUCCINYLCHOLINE CHLORIDE]
Not Active: IC50 (D(1A) dopamine receptor) | IC50 [1] | Ki [1] | IC50 [2] | Ki [2] | IC50 [4] | Ki [4] | IC50 [5] | IC50 [6] | Ki [6] | IC50 [7] | Ki [7]

Nc1ccc(S(=O)(=O)NC(=O)c2ccccc2)cc1 [SULFABENZAMIDE]
Not Active: IC50 (D(1A) dopamine receptor) | IC50 [1] | Ki [1] | IC50 [2] | Ki [2] | IC50 ([3]; hek293) | IC50 [4] | Ki [4] | IC50 [5] | IC50 [6] | Ki [6] | IC50 [7] | Ki [7]

CCCCCCCCNC(C)C(O)c1ccc(SC(C)C)cc1 (configuration not stated) [SULOCTIDIL]
Not Active: IC50 (D(1A) dopamine receptor) | IC50 [1] | Ki [1] | IC50 [2] | Ki [2] | IC50 ([3]; hek293) | IC50 [7] | Ki [7]

O=c1[nH]c(=O)n(C2CCCO2)cc1F (configuration not stated) [TEGAFUR]
Not Active: IC50 (D(1A) dopamine receptor) | IC50 [1] | Ki [1] | IC50 [2] | Ki [2] | IC50 ([3]; hek293) | IC50 [4] | Ki [4] | IC50 [5] | IC50 [6] | Ki [6] | IC50 [7] | Ki [7]

CC(=N)S [THIOACETAMIDE]
Not Active: IC50 (D(1A) dopamine receptor) | IC50 [1] | Ki [1] | IC50 [2] | Ki [2] | IC50 ([3]; hek293) | IC50 [4] | Ki [4] | IC50 [5] | IC50 [6] | Ki [6] | IC50 [7] | Ki [7]

Cc1ccc(C(=O)c2ccc(CC(=O)O)n2C)cc1 [TOLMETIN]
Not Active: IC50 (D(1A) dopamine receptor) | IC50 [1] | Ki [1] | IC50 [2] | Ki [2] | IC50 ([3]; hek293) | IC50 [4] | Ki [4] | IC50 [5] | IC50 [6] | Ki [6] | IC50 [7] | Ki [7]

CC(=O)OCC(COC(C)=O)OC(C)=O [TRIACETIN]
Not Active: IC50 (D(1A) dopamine receptor) | IC50 [1] | Ki [1] | IC50 [2] | Ki [2] | IC50 ([3]; hek293) | IC50 [4] | Ki [4] | IC50 [5] | IC50 [6] | Ki [6] | IC50 [7] | Ki [7]

CN1CCN(CCCN2c3ccccc3Sc3ccc(C(F)(F)F)cc32)CC1 [TRIFLUOPERAZINE]
Not Active: IC50 (D(1A) dopamine receptor) | IC50 [1] | Ki [1] | IC50 [2] | Ki [2] | IC50 ([3]; hek293) | IC50 [4] | Ki [4] | IC50 [5] | IC50 [6] | Ki [6] | IC50 [7] | Ki [7]

TRANSPLATIN
Not Active: IC50 (D(1A) dopamine receptor) | Ki (D(1A) dopamine receptor) | IC50 [1] | Ki [1] | IC50 [2] | Ki [2] | IC50 [4] | Ki [4] | IC50 [5] | Ki [5] | IC50 [6] | Ki [6] | IC50 [7] | Ki [7]

ZIRCONIUM(IV) CHLORIDE
Not Active: IC50 (D(1A) dopamine receptor) | Ki (D(1A) dopamine receptor) | IC50 [1] | Ki [1] | IC50 [2] | Ki [2] | IC50 [4] | Ki [4] | IC50 [5] | Ki [5] | IC50 [6] | Ki [6] | IC50 [7] | Ki [7]
